According to patent US20260240851A1, “Treatment of Parkinson's Disease in a Patient Using a Glucocerebrosidase Activator” (BIAL - R&D Investments, S.A., priority 2023, published 2026):

Tests used:
[1] = Phase 2 placebo-controlled study of Compound A in GBA-PD (Example 3); type: in vivo, human
Source text: This study is a Phase 2, randomized, double-blind, placebo-controlled, multiple oral dose study of Compound A in subjects (aged 35 to 80 years, inclusive) with GBA-PD. The subjects have a clinical diagnosis of PD for at least 1 year and for no longer than 7 years before initiation of screening (for Part A), as confirmed by a neurologist using the MDS Criteria for Parkinson's Disease, have a modified Hoehn and Yahr score 2.5, have a score of ≥22 on the Montreal Cognitive Assessment (MoCA), and are receiving symptomatic treatment for PD. […] The objectives of this study are to investigate the efficacy, safety, tolerability, pharmacodynamics and PK of once-daily oral administration of Compound A.
Genetic screening of the subjects is performed using blood collected (preferably whole blood samples). Subjects are screened by sequencing of the full GBA1 gene, with specifications of any PD risk-associated variants that are identified. Subjects are also screened for the presence or absence of PD risk-associated variants in the LRRK2 (Leucine-rich repeat kinase 2) gene. Subjects who have an LRRK2 pathogenic variant are not eligible for Part B (Double-Blind Treatment) of the study.
Subjects that have a pathogenic variant in the glucocerebrosidase 1 (GBA1) gene (GBA-PD) (for example, see Appendix 1) and have been on a stable dose of PD medication for at least 30 days (at least 60 days for rasagiline) before commencing treatment are included in the next stage of the trial. In addition, subjects with the following are excluded from further treatment: • The subject has Gaucher's disease (GD), as defined by clinical signs and symptoms (i.e., hepatosplenomegaly, cytopenia, skeletal disease), and/or a medical history of marked deficiency of GCase plasmatic activity (preferably GCase whole blood activity) compatible with GD. • The subject is homozygous for a GBA1 pathogenic variant that is known to be associated with GD or compound heterozygous for 2 alleles that are known to be associated with GD. • The subject carries a known PD-associated LRRK2 pathogenic variant (for example, see Appendix 2). • The subject has atypical or secondary parkinsonism by medical history or in the opinion of the investigator. Atypical parkinsonism includes, but is not limited to, diagnoses of progressive supranuclear palsy, cortico-basal syndrome, and multiple system atrophy. Secondary parkinsonism includes drug-induced, toxin-induced, postinfectious, posttraumatic, or vascular parkinsonism. • The subject is using a strong CYP3A4 modulator at the time of screening for Part B. • The subject is using a breast cancer resistance protein (BCRP) substrate (e.g. pravastatin, rosuvastatin, glyburide) at the time of screening for Part B. • (Optionally) The subject has used any of the following medications within 60 days before Baseline: typical or atypical antipsychotics (including, but not limited to, clozapine, pimavanserin, olanzapine, quetiapine, risperidone, and aripiprazole); metoclopramide; prochlorperazine; methyldopa; tetrabenazine; deutetrabenazine; valbenazine; reserpine; or a prior history or continuation or initiation during the study of ambroxol at doses >120 mg/day.
Subjects are randomly assigned to three groups who receive i) Compound A 10 mg, once daily, oral administration, ii) Compound A 60 mg, once daily, oral administration, or iii) Placebo, once daily, oral administration. Subjects also receive their usual PD medications throughout the study. Randomization is stratified by major/severe (e.g., heterozygous for N370S, D409H, H255Q, D140H, G202R, L324P, I260T, L444P, A190T, R120W; homozygous for T369M or E326K) or minor/mild (e.g., heterozygous for T369M or E326K) PD risk-associated variant. Alternatively, randomization is stratified by severity as a mild or severe GBA1 variant as described in Parlar, 2023 (also see Appendix 1). […]

[2] = BIA 28-6156-105: safety and tolerability
[3] = BIA 28-6156-107: safety and tolerability; type: in vivo, human
[4] = system: GluCer, GluSph and LacCer in plasma, PBMCs and CSF; test: LTI-291-002: glycolipid biomarkers; type: in vivo, human; details: healthy subjects
Procedure: This study was a phase 1, randomized, double-blind, placebo-controlled, multiple ascending dose study of Compound A in 4 cohorts of middle-aged to elderly healthy participants (aged 52 to 75 years). […] A total of 39 healthy subjects were enrolled in 4 sequential cohorts. Subjects in each cohort received once-daily oral doses of 3 mg (n=7), 10 mg (n=8), 30 mg (n=8), or 60 mg (n=8) Compound A or placebo (n=8) for 14 days. Pharmacokinetic parameters were determined for each dose at Day 1, Day 7, and Day 14. Cerebrospinal fluid samples for Compound A concentrations were measured before the first dose and 4 hours after the last dose for each dose level. GluCer, glucosyl sphingosine (GluSph), and lactosyl-ceramide (LacCer) were measured in plasma, PBMCs, and CSF as biomarkers of pharmacological effects. Pharmacodynamic measurements consisted of battery of CNS (NeuroCart®) assessments including Saccadic Eye Movements, Smooth Pursuit Eye Movements, Adaptive Tracking, Body Sway, Visual Verbal Learning Test, and pharmaco-EEG.

[5] = system: GluCer, GluSph and LacCer in plasma, PBMCs and CSF; test: LTI-291-003: glycolipid biomarkers; type: in vivo, human; details: for GluCer and LacCer in PBMCs: GBA-PD
Procedure: GluCer, GluSph, and LacCer were measured in plasma, PBMCs, and CSF as biomarkers of pharmacological effects. The pharmacodynamic evaluations also consisted of a battery of NeuroCart assessments (Saccadic Eye Movements, Smooth Pursuit Eye Movements, Adaptive Tracking, Body Sway, and Visual Verbal Learning Test); functional outcome measures (MDS-UPDRS Part III, and the MMSE); and pharmaco-EEG.

## CCCCCO[C@H]1CC[C@H](NC(=O)c2cnn3c(C)cc(C)nc23)CC1 [Compound A, 5,7-dimethyl-N-((1S*,4S)-4-(pentyloxy)cyclohexyl)pyrazolo[1,5-a]pyrimidine-3-carboxamide]
[1]; all measured time points
  Mean plasma concentrations, 60 mg vs 10 mg: higher after the 60 mg dose than after the 10 mg dose
[1]; some subjects, Compound A 10 or 60 mg daily up to 78 weeks vs placebo
  time to worsening (MDS-UPDRS based and other measures): increased time to worsening
[1]; vs placebo
  Mean change in lysosomal activity: higher
  Mean change in plasma concentrations of neurofilament light chain: lower
  Mean change of cerebral blood flow by arterial spin labeling with MRI: higher
  mean change in the level of GluSph: higher
[2]; after 150 mg Compound A
  laboratory values considered related to Compound A: increased ALT and increased GGT in 1 subject
[2]; in vivo
  deaths or other SAEs: No deaths or other SAEs
[2]; reported in 2 subjects
  TEAEs considered related to Compound A 150 mg: 4 of 90 TEAEs
[3]; 60 mg Compound A with 25 mg/100 mg immediate-release carbidopa-levodopa
  AEs: No AEs were reported
[3]; 60 mg Compound A with 300 mg extended-release carbamazepine
  subjects reporting AEs: 25.0%
[3]; after 60 mg Compound A alone, 12 subjects
  subjects reporting AEs: 16.7%
[3]; in vivo
  SAEs: No SAEs were reported
  vital signs, physical examinations, ECG parameters, C-SSRS: no clinically significant safety observations
[4]; 14 days of dosing
  consistent pharmacodynamic effect on glycolipids: not observed
[4]; 14 days
  GluCer and LacCer variables in CSF: sporadic, statistically significant decreases
  GluCer and LacCer variables in plasma and PBMCs: Sporadic, statistically significant increases
[5]; 7 and 14 days of treatment
  GluCer and LacCer in PBMCs: statistically significant increase
[5]; 10, 30, 60 mg/day
  dose-response or exposure-response of PBMC glycolipid effects: no obvious dose-response or exposure response relationship
[5]; 28 days
  plasma or CSF levels of glycolipids: no obvious changes
[5]; 28 days of treatment
  GluCer and LacCer in PBMCs: smaller increase
[5]; Gaucher or major vs polymorphism GBA1 mutations
  PBMC glycolipid effects by severity of GBA1 mutation: generally greater
[5]; vs placebo
  Intracellular GluSph in PBMCs: did not show a clear response
